Test results as given in the supplement of paper PMC10307832.

Columns and labels:
Assay in all cases: relative viability (nuclei count vs DMSO), 5 days (fraction); higher = more cells survive
[1] = compound: CN1C=C(C2=CC=CC=C21)/C=C\3/C4=C(C=CC=N4)NC3=O + COc1cc2c(Oc3ccc(NC(=O)C4(C(=O)Nc5ccc(F)cc5)CC4)cc3F)ccnc2cc1OCCCN1CCOCC1 [Foretinib] (partner 0.25 µM)
How it was run: (§1)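 Relative viability was taken as the ratio of nuclei in treated wells to nuclei in vehicle wells. Lung cancer cell lines in 1536-well plates received compounds by pin tool one day after seeding, either one drug alone or a fixed anchor-drug dose plus five library-drug doses (not always all listed) in √10 steps. Nuclei were counted on 4× images after 5 days of treatment, and values are medians of duplicate plates.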

[2] = compound: CN1C=C(C2=CC=CC=C21)/C=C\3/C4=C(C=CC=N4)NC3=O + Cc1cc(Nc2cc(N3CCN(C)CC3)nc(Sc3ccc(NC(=O)C4CC4)cc3)n2)n[nH]1 [Tozasertib] (partner 0.1 µM)
How it was run: as §1

[3] = compound: CN1C=C(C2=CC=CC=C21)/C=C\3/C4=C(C=CC=N4)NC3=O + O=C(c1cc(Cc2n[nH]c(=O)c3ccccc23)ccc1F)N1CCN(C(=O)C2CC2)CC1 [Olaparib] (partner 8 µM)
How it was run: as §1

[4] = compound: CN1C=C(C2=CC=CC=C21)/C=C\3/C4=C(C=CC=N4)NC3=O + CS(=O)(=O)N1CCN(Cc2cc3nc(-c4cccc5[nH]ncc45)nc(N4CCOCC4)c3s2)CC1 [Pictilisib] (partner 1 µM)
How it was run: as §1

Cell Line	relative viability ([1]; first compound 0.02 µM)	relative viability ([1]; first compound 0.06325 µM)	relative viability ([1]; first compound 0.2 µM)	relative viability ([1]; first compound 0.6325 µM)	relative viability ([1]; first compound 2 µM)	relative viability ([2]; first compound 0.02 µM)	relative viability ([2]; first compound 0.06325 µM)	relative viability ([2]; first compound 0.2 µM)	relative viability ([2]; first compound 0.6325 µM)	relative viability ([2]; first compound 2 µM)	relative viability ([3]; first compound 0.02 µM)	relative viability ([3]; first compound 0.06325 µM)	relative viability ([3]; first compound 0.2 µM)	relative viability ([3]; first compound 0.6325 µM)	relative viability ([3]; first compound 2 µM)	relative viability ([4]; first compound 0.02 µM)	relative viability ([4]; first compound 0.06325 µM)	relative viability ([4]; first compound 0.2 µM)	relative viability ([4]; first compound 0.6325 µM)	relative viability ([4]; first compound 2 µM)
SK-MES-1	0.795	0.668	0.96	0.875	0.865	0.945	0.749	0.917	0.874	0.886	0.638	0.516	0.592	0.544	0.505	0.338	0.308	0.346	0.342	0.302
HCC-15	0.947	0.935	1.03	1.01	0.998	0.322	0.406	0.493	0.346	0.531	0.716	0.679	0.733	0.713	0.837	0.717	0.639	0.775	0.666	0.771
ABC-1	0.929	1.08	1.16	1.13	1.13	0.173	0.18	0.172	0.173	0.183	0.976	0.745	0.612	0.826	0.86	0.774	0.681	0.682	0.663	0.608
EPLC-272H	0.564	0.677	0.603		0.663	0.193	0.276	0.244		0.283	1.16	0.706	0.712		0.682	0.294	0.285		0.27	0.304
NCI-H2009	1.22	1.19	1.19	1.24	1.24	0.73	0.613	0.741	0.859	0.831	0.598	0.636	0.703	0.677	0.604	0.804	0.672	0.682	0.8	0.792
NCI-H661	1.11	0.965	1.04	1.05	1.04	0.344	0.349	0.365	0.4	0.36	0.825	0.722	0.791	0.89	0.822	0.399	0.418	0.325	0.339	0.375
NCI-H520	0.639	0.773	0.847	0.717	0.937	0.396	0.47	0.501	0.436	0.415	0.298	0.369	0.312	0.342	0.363	0.275	0.296	0.275	0.308	0.335
NCI-H2405	1.04	1.03	0.896	1.01	1.05	0.742	0.717	0.67	0.721	0.731	0.854	0.843	0.729	0.87	0.804	0.423	0.399	0.401	0.388	0.41
LCLC-97TM1	0.891	0.793	0.91	1.03	0.921	0.132	0.196	0.181	0.332	0.252		0.348	0.309	0.314	0.289	0.159			0.216	0.131
NCI-H727	0.7	0.664	0.878	0.817	0.665	0.554	0.447	0.59	0.636	0.633	0.76	0.729	0.67	0.688	0.635	0.363	0.304	0.208	0.299	0.484
NCI-H2228	0.95	0.764			0.823	0.15	0.223			0.192	0.951	0.534	0.579	0.476	0.768	0.378	0.371		0.327	0.27
LK-2				1.23	1.41				0.164	0.152	0.563	0.528		0.422	0.66		0.364	0.458	0.453	0.557
PC-3 [JPC-3]	1.06	1.02	0.987	0.973	1.05	0.863	0.897	0.92	0.746	0.913	1.03	1.1	1.12	1.2	1.16	0.703	0.691	0.665	0.778	0.758
NCI-H596	0.963	0.89	0.871	0.742	0.855	0.981	0.878	0.745	0.7	0.918	0.545	0.744	0.648	0.558	0.554	0.333	0.322	0.421	0.392	0.396
NCI-H460	1.09	0.967	1.05	0.986	0.975	0.458	0.403	0.448	0.363	0.0797	0.463	0.417	0.491	0.435	0.367	0.508	0.324	0.285	0.292	0.335
NCI-H647	1.24	1.24	1.04	1.17	1.01	0.327	0.345	0.206	0.321	0.215	0.262	0.426	0.446	0.395	0.458	0.379	0.292		0.324	0.312
NCI-H838	0.778	0.853	1.03	0.894	0.92	0.264	0.223	0.259	0.294	0.257	0.695	0.604	0.653	0.765	0.67	0.311	0.351	0.464	0.4	0.381
